Results taken from patent publication US20190111137A1, “METHODS FOR ANTAGONISTS OF A NON-SELECTIVE CATION CHANNEL IN NEURAL CELLS” (University of Maryland, Baltimore, priority 2007, published 2019).
Several values for one entry are separate records, joined by “and”; a condition that tells them apart may be missing. Equal entries are not always repeated. Entries after “also recorded” stand apart in the source; their conditions may differ.

Tests used:
[1] = system: TRPM4; test: TRPM4 protein in bEnd.3 cells after 6-h exposure to TNFα (Western blot); assay type: cell-based, murine; conditions: 20 ng/ml
Description: TNFα causes up-regulation NCCa-ATP (putative TRPM4) channel in bEnd.3. In certain aspects of the invention, injury leads to NFκB activation, such as SCI, and can result in up-regulation of functional TRPM4 channels. Murine CNS microvascular endothelial cells (bEnd.3, ATTC, Rockville, Md.) were studied under control conditions and after 6-h exposure to the pro-inflammatory cytokine, TNFα (20 ng/ml), which activates NFκB. Cultures were immunolabeled for TRPM4 and TRPM5, the only 2 molecularly identified non-selective cation channels with exclusive monovalent conductivity. […] Immunolabeling for TRPM5 was negative. Western blots confirmed robust up-regulation of TRPM4 (3-fold increase, FIGS. 19C,19D).

[2] = system: rat model of contusion SCI; test: Rat model of unilateral cervical spinal cord injury (SCI); assay type: in vivo; conditions: 24 h post-SCI
[3] = system: TRPM4 channel; conditions: read-out: glibenclamide block (EC50); cited from earlier work
[4] = system: rat model of contusion SCI; conditions: as reported (Simard et al., 2007); cited from earlier work
[5] = system: rodent models of ischemic stroke; conditions: cited from earlier work
[6] = constant infusion 75-200 ng/h; cited from earlier work
[7] = system: reactive astrocytes; conditions: cells exposed to Na azide to deplete ATP; cited from earlier work

Row | Molecule | up-regulation of TRPM4 (Western blots) [1] [fold] | TRPM4 expression in cord (immunolabeling) [2] | EC50 [3] [µM] | neurological function [4] | progressive hemorrhagic necrosis [4] | tissue loss [4] | reduction of mortality ([5]; massive ischemic stroke with malignant cerebral edema) | reduction of cerebral edema (excess water) ([5]; massive ischemic stroke with malignant cerebral edema, low-dose, post-ischemic) | reduction of lesion volume ([5]; stroke induced by thromboemboli with delayed spontaneous reperfusion) | predicted serum concentration [6] | blebbing associated with cytotoxic edema [7] | membrane depolarization [7] | necrotic cell death [7]
1 | TNFα | 3 | – | – | – | – | – | – | – | – | – | – | – | –
2 | COc1ccc(Cl)cc1C(=O)NCCc1ccc(S(=O)(=O)NC(=O)NC2CCCCC2)cc1 [glibenclamide] | – | significantly reduced | 10 to 100 | significantly improves neurological outcome; also recorded: improves neurological function | significantly reduces progressive hemorrhagic necrosis | significantly reduces | half | half | half | 1-3 ng/ml and 2-6 nM | significantly reduces blebbing | blocks membrane depolarization | significantly reduces necrotic cell death
